Data from patent US10099995B2 (Cole Research and Design, LLC, priority 2015, dated 2018).
≈ marks a conversion by molar mass, not a printed value.

How the values were obtained:
physchem = assay: physchem
Method: Two 4 mg samples of each compound were weighed.
The first sample was used to determine solubility. The sample was mixed with 1 mL of pH 7.4 phosphate buffered saline (PBS) buffer solution to produce a 4 mg/mL solution. The solution was vortexed and filtered to remove undissolved particles. The filtered solution was then diluted in pH 7.4 buffer in triplicate and stored in a refrigerator to reduce hydrolysis. The solutions were allowed to sit at room temperature for 5 minutes and then were analyzed by HPLC.
The second sample was used to prepare a calibration curve in ethanol. Calibrators were made based on expected solubility. After visually inspecting solubility in the buffer, the calibration curve was determined in order to include points above and below the expected concentration. The calibrators were stored in a refrigerator until ready for analysis by HPLC.

[1] = system: subscapular incision wound; assay: in vivo application of compositions to subscapular incisions in a rat model (Example 13); design: species or system Sprague-Dawley rats
Source text: 12 Sprague-Dawley rats were placed randomly into 6 different groups, Study Groups 1-6, resulting in 2 animals per study group. Animals were anesthetized and the dorsal subscapular areas were shaved of hair with electric trimmers. Demarcations were made in a gently widening parallel approximately 1 cm subscapular and 2.2 cm in length. The left subscapular incision served as a control and the right subscapular incision served as the treatment site. The subscapular areas were incised with a #15 blade though the skin and subcutaneous panniculus carnosus muscle. The composition mixture corresponding to each group was then instilled into the right subscapular wound and the incision closed with 5-0 nylon interrupted fashion. Additional mixture was applied to the surface of the treatment site incision. Three biopsies were taken of normal skin at the time of incision and prior to any mixture instillation. Each site was then monitored and photographed daily. Wound gross morphology was noted daily. Sutures were removed and biopsies were taken at day 8 of the study (postoperative day #7) and sent to pathology for histology review. Histology was reviewed independently by two dermatopathologists.
A siRNA (MCP-1 inhibitor)

[2] = pH 7.4
wound = details: applied before wound formation or up to 24 hours after; cited from earlier work

Structure (SMILES)	Solubility (physchem; pH 7.4)	differences in histology between control and treatment site ([1]; 100 μM and 400 μM (either dosage), Groups 2 and 3)	difference in treatment, alone, as compared to natural resveratrol alone ([1]; Groups 2 and 3)	evidence of trichogranuloma in histology specimens ([1]; histology)	hydrolysis [2]	Solubility (physchem; pH 7.4, aqueous buffer, thermodynamic from solid)	scar (wound)	time to re-epithelialization (wound)
O=C(O)CCCC(=O)Oc1ccc(C=Cc2cc(OC(=O)CCCC(=O)O)cc(OC(=O)CCCC(=O)O)c2)cc1 [Resveratrol trihemiglutarate, resveratrol trihemiglutarate]	2060 µg/mL (≈ 3610 µM)	no differences	no appreciable difference	mild	slightly hydrolyzed			
O=C(O)CCC(=O)Oc1ccc(C=Cc2cc(OC(=O)CCC(=O)O)cc(OC(=O)CCC(=O)O)c2)cc1 [Resveratrol trihemisuccinate, resveratrol trihemisuccinate]	291 µg/mL (≈ 551 µM)				quick hydrolysis			
Oc1ccc(/C=C/c2cc(O)cc(O)c2)cc1 [Resveratrol, trans-3,4′,5-trihydroxystilbene]						4.8 µg/mL (≈ 21 µM)	attenuated scar	up to 24 hours
